The target in one experiment is ALPK1 (Homo sapiens (Human), UniProt Q96QP1). The experiment can be described thus: ALPK1 in vitro kinase assay (HTRF of TIFA phosphorylation). It counts as biochemical. Background: Time-resolved FRET reads energy transfer from a long-lived donor to a nearby acceptor.
The test system of experiment [1] is ALPK1-dependent NFκB reporter gene activation in HEK293 cells stably expressing an NF-kB reporter (G9 cells). Nature of the experiment: NFκB gene reporter alkaline phosphatase assay. It is filed as cell-based. Particulars: Homo sapiens, HEK293; read-out: NFkB assay IC50. Put shortly:
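HEK293 G9 cells stably carrying an NF-kB alkaline phosphatase reporter were seeded at 10,000 cells/well in Freestyle 293 medium and attached overnight. They were pretreated with serially diluted compound for 30 min, then stimulated with D-glycero-D-manno-6-fluoro-heptose-1β-S-ADP. Reporter phosphatase was read with pNPP; IC50 from logistic fit.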

Chain of ALPK1 (Q96QP1 whole entry): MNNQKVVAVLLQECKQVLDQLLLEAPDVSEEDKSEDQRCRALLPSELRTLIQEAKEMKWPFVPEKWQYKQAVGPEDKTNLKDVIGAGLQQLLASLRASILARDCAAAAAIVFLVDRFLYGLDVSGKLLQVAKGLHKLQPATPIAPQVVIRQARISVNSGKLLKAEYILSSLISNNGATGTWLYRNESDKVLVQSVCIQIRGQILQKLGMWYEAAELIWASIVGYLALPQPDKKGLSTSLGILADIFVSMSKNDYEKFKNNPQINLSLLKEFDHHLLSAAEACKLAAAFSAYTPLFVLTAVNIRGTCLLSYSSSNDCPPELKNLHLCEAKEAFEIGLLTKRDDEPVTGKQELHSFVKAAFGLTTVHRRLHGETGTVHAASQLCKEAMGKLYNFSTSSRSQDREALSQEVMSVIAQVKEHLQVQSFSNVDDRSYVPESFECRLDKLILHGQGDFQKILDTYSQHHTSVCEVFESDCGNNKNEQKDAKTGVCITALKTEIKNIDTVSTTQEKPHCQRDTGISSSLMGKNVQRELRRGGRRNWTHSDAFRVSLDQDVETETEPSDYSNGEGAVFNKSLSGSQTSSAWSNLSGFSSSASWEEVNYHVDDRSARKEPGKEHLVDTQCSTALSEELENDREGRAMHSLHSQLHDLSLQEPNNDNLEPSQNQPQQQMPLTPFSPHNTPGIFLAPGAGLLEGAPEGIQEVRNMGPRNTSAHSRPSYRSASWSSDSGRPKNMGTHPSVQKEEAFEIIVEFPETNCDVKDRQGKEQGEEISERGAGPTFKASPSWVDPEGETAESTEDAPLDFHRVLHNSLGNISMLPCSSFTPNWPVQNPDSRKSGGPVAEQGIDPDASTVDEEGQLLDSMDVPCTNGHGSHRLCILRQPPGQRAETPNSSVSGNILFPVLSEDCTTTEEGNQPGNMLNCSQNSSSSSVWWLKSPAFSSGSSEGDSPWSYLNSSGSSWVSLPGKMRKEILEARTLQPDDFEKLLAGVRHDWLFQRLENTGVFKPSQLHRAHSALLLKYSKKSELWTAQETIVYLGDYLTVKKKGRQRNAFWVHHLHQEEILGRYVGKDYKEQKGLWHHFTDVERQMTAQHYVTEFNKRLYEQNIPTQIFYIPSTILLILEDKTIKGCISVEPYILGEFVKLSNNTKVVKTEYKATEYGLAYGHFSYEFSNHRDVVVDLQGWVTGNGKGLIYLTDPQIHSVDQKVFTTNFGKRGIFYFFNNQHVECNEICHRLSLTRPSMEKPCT

One may read the IC50 as the concentration needed to halve the response being measured. Turning to `COc1ccc(C(C)(C)c2csc(NC(=O)NCCS(N)(=O)=O)n2)cc1` [Example A137, 2-(3-(4-(2-(4-methoxyphenyl)propan-2-yl)thiazol-2-yl)ureido)ethanesulfona-mide], the half-maximal inhibitory concentration (IC50) against ALPK1 came to 0.042 µM; in experiment [1], 1.96 µM.

As for `COc1ccc(C(C)(C)c2csc(NC(=O)NCCCN3CCOCC3)n2)cc1` [Example A134, 1-(4-(2-(4-methoxyphenyl)propan-2-yl)thiazol-2-yl)-3-(3-morpholinopropyl)urea], the IC50 against ALPK1 turned out to be 0.152 µM; in experiment [1], 5.11 µM.

`CC(O)(c1ccc(Br)cc1)c1csc(NC(=O)NCc2ccc(N3CCNCC3)c(F)c2)n1` (stereo not drawn) [Example A056, 1-(4-(1-(4-bromophenyl)-1-hydroxyethyl)thiazol-2-yl)-3-(3-fluoro-4-(piperazin-1-yl)benzyl)urea]: the values for the IC50 (at ALPK1; in experiment [1]) were 0.176 µM and 1.06 µM, respectively.

In the case of `COCCNC(=O)Nc1nc(C(C)(C)c2ccc(OC)cc2)cs1` [Example A110, 1-(2-methoxyethyl)-3-(4-(2-(4-methoxyphenyl)propan-2-yl)thiazol-2-yl)urea], the concentration for half-maximal inhibition (IC50) against ALPK1 was 0.193 µM; in experiment [1], 0.94 µM.

Turning to `C#CC(C)(c1ccc(Br)cc1)c1csc(NC(=O)NCC(O)CO)n1` (stereo not drawn) [Example A156, 1-(4-(2-(4-bromophenyl)but-3-yn-2-yl)thiazol-2-yl)-3-(2,3-dihydroxypropyl)urea], the IC50 amounted to 0.022 µM at ALPK1 and 0.38 µM in experiment [1].

As for `CC(C)(c1ccc(Cl)cc1)c1csc(NC(=O)NCc2ccc(N3CCNCC3)cc2)n1` [Example A046, 1-(4-(2-(4-chlorophenyl)propan-2-yl)thiazol-2-yl)-3-(4-(piperazin-1-yl)benzyl)urea], the half-inhibitory concentration (IC50) against ALPK1 turned out to be 0.079 µM; in experiment [1] it was 1.06 µM.

Take `CCC(C)(c1ccc(OC)cc1)c1csc(NC(=O)NC(C)c2ccc(N3CCNCC3)cc2)n1` (stereo not drawn) [Example A076, 1-(4-(2-(4-methoxyphenyl)butan-2-yl)thiazol-2-yl)-3-(1-(4-(piperazin-1-yl)phenyl)ethyl)urea]: the figures for the IC50 (at ALPK1; in experiment [1]) were 0.147 µM and 4.48 µM, respectively.

Consider `COc1ccc(C(C)(C)c2csc(NC(=O)NCc3ccc(N4CCNCC4)cc3)n2)cc1` [Example A053, 1-(4-(2-(4-methoxyphenyl)propan-2-yl)thiazol-2-yl)-3-(4-(piperazin-1-yl)benzyl)urea], for which the IC50 was 0.043 µM on ALPK1 and 0.76 µM in experiment [1].

Consider `CC(C)(c1ccc(Br)cc1)c1csc(NC(=O)NCc2ccc(OCCN3CCNCC3)cc2)n1` [Example A034, 1-(4-(2-(4-bromophenyl)propan-2-yl)thiazol-2-yl)-3-(4-(2-(piperazin-1-yl)ethoxy)benzyl)urea], for which the IC50 on ALPK1 stood at 0.114 µM; in experiment [1], 0.73 µM.

For the compound `COc1ccc(C(C)(C)c2csc(NC(=O)NCc3ccc(C(=O)NC4CCNCC4)cc3)n2)cc1` [Example A042, 4-((3-(4-(2-(4-methoxyphenyl)propan-2-yl)thiazol-2-yl)ureido)methyl)-N-(piperidin-4-yl)benzamide], the 50% inhibitory concentration (IC50) was determined as 0.015 µM against ALPK1 and 1 µM in experiment [1].

On to `CC(C)(c1ccc(Br)cc1)c1csc(NC(=O)NCc2ccc(N3CCNCC3)c(N)c2)n1` [Example A098, 1-(3-amino-4-(piperazin-1-yl)benzyl)-3-(4-(2-(4-bromophenyl)propan-2-yl)thiazol-2-yl)urea], for which the 50% inhibitory concentration (IC50) stood at 0.031 µM against ALPK1 and 1.07 µM in experiment [1].

As for `CC(C)(c1ccc(Br)cc1)c1csc(NC(=O)NCc2cnc(NCCN)nc2)n1` [Example A081, 1-((2-((2-aminoethyl)amino)pyri-midin-5-yl)methyl)-3-(4-(2-(4-bromophenyl)propan-2-yl)thiazol-2-yl)urea], the IC50 on ALPK1 is 0.017 µM; in experiment [1] it was 1.84 µM.

On to `CC(C)(c1ccc(Br)cc1)c1csc(NC(=O)NCc2ccnc(N3CCNCC3)n2)n1` [Example A090, 1-(4-(2-(4-bromophenyl)propan-2-yl)thiazol-2-yl)-3-((2-(piperazin-1-yl)pyrimidin-4-yl)methyl)urea], for which the IC50 is 0.178 µM against ALPK1 and 1.11 µM in experiment [1].

With `CC(C)(c1ccc(Br)cc1)c1csc(NC(=O)NCc2ccc(CN3CCNCC3)cc2)n1` [Example A026, 1-(4-(2-(4-bromophenyl)propan-2-yl)thiazol-2-yl)-3-(4-(piperazin-1-ylmethyl)benzyl)urea], the figures for the half-maximal inhibitory concentration (IC50) (against ALPK1; in experiment [1]) were 0.117 µM and 1.25 µM, respectively.

For `COc1ccc(C(C)(C)c2csc(NC(=O)NCCCS(=O)(=O)N3CCNCC3)n2)cc1` [Example A230, 1-(4-(2-(4-methoxyphenyl)propan-2-yl)thiazol-2-yl)-3-(3-(piperazin-1-ylsulfonyl)propyl)urea], the results for the IC50 (against ALPK1; in experiment [1]) were 0.127 µM and 3.01 µM, respectively.

In the case of `Cc1cc(CNC(=O)Nc2nc(C(C)(C)c3ccc(Br)cc3)cs2)ccc1N1CCNCC1` [Example A096, 1-(4-(2-(4-bromophenyl)propan-2-yl)thiazol-2-yl)-3-(3-methyl-4-(piperazin-1-yl)benzyl)urea], the IC50 against ALPK1 is 0.069 µM; in experiment [1], 1.43 µM.

Take `C#C[C@](C)(c1ccc(Cl)cc1)c1csc(NC(=O)N2CC(CN3CCNCC3)C2)n1` (stereo in doubt) [Example A291, N-(4-(2-(4-chlorophenyl)but-3-yn-2-yl)thiazol-2-yl)-3-(piperazin-1-ylmethyl)azetidine-1-carboxamide]: the IC50 is 0.109 µM against ALPK1 and 1.65 µM in experiment [1].

Consider `COc1ccc(C(C)(C)c2csc(NC(=O)NC(C)c3cc(F)c(N4CCNCC4)c(F)c3)n2)cc1` (stereo not drawn) [Example A152, 1-(1-(3,5-difluoro-4-(piperazin-1-yl)phenyl)ethyl)-3-(4-(2-(4-methoxyphenyl)propan-2-yl)thiazol-2-yl)urea], for which the IC50 on ALPK1 is 0.055 µM; in experiment [1], 0.35 µM.

Regarding `C#C[C@](C)(c1ccc(Cl)cc1)c1csc(NC(=O)N2CC(c3ccc(N4CCNCC4)c(F)c3)C2)n1` [Example A246, (R)-N-(4-(2-(4-chlorophenyl)but-3-yn-2-yl)thiazol-2-yl)-3-(3-fluoro-4-(piperazin-1-yl)phenyl)azetidine-1-carboxamide], the values for the half-inhibitory concentration (IC50) (at ALPK1; in experiment [1]) were 0.029 µM and 1.59 µM, respectively.

On to `C#CC(C)(c1ccc(Br)cc1)c1csc(NC(=O)NCCN2CCOCC2)n1` (stereo not drawn) [Example A155, 1-(4-(2-(4-bromophenyl)but-3-yn-2-yl)thiazol-2-yl)-3-(2-morpholinoethyl)urea], for which the IC50 amounted to 0.03 µM against ALPK1 and 0.9 µM in experiment [1].

Consider `COc1ccc(C(C)(C)c2csc(NC(=O)NCc3cc(F)c(N4CCC(N)C4)c(F)c3)n2)cc1` (stereo not drawn) [Example A201, 1-(4-(3-aminopyrrolidin-1-yl)-3,5-difluorobenzyl)-3-(4-(2-(4-methoxyphenyl)propan-2-yl)thiazol-2-yl)urea], for which the values for the half-inhibitory concentration (IC50) (on ALPK1; in experiment [1]) were 0.025 µM and 0.53 µM, respectively.

As for `COc1ccc(C(C)(C)c2csc(NC(=O)NCc3ccc(N4CC5CC4CN5)cc3)n2)cc1` (stereo not drawn) [Example A062, 1-(4-(2,5-diazabicyclo[2.2.1]heptan-2-yl)benzyl)-3-(4-(2-(4-methoxyphenyl)propan-2-yl)thiazol-2-yl)urea], the IC50 against ALPK1 was 0.06 µM; in experiment [1], 1.33 µM.

With `CC(C)(c1ccc(Br)cc1)c1csc(NC(=O)NCc2ccc(C(N)=O)cc2)n1` [Example A008, 4-((3-(4-(2-(4-bromophenyl)propan-2-yl)thiazol-2-yl)ureido)methyl)benz-mide], the values for the IC50 (against ALPK1; in experiment [1]) were 0.008 µM and 0.7 µM, respectively.

For the compound `C#CC(C)(c1ccc(Cl)cc1)c1csc(NC(=O)N(C)CCO)n1` (stereo not drawn) [Example A254, 3-(4-(2-(4-chlorophenyl)but-3-yn-2-yl)thiazol-2-yl)-1-(2-hydroxyethyl)-1-methylurea], the IC50 was 0.548 µM against ALPK1 and 2.07 µM in experiment [1].

Consider `Cc1nc(N2CCNCC2)ncc1CNC(=O)Nc1nc(C(C)(C)c2ccc(Br)cc2)cs1` [Example A089, 1-(4-(2-(4-bromophenyl)propan-2-yl)thiazol-2-yl)-3-((4-methyl-2-(piperazin-1-yl)pyrimidin-5-yl)methyl)urea], for which the IC50 was 0.026 µM against ALPK1 and 1.19 µM in experiment [1].

As for `O=C(NCc1ccc(N2CCNCC2)cc1)Nc1nc(C2(c3ccc(Br)cc3)CCCC2)cs1` [Example A045, 1-(4-(1-(4-bromophenyl)cyclopentyl)thiazol-2-yl)-3-(4-(piperazin-1-yl)benzyl)urea], the concentration for half-maximal inhibition (IC50) against ALPK1 was 0.024 µM; in experiment [1], 1.07 µM.

Consider `COc1ccc(C(C)(C)c2csc(NC(=O)NCc3cnc(N4CCC(N)C4)nc3)n2)cc1` (stereo not drawn) [Example A187, 1-((2-(3-aminopyrrolidin-1-yl)pyrimidin-5-yl)methyl)-3-(4-(2-(4-methoxyphenyl)propan-2-yl)thiazol-2-yl)urea], for which the IC50 against ALPK1 was 0.007 µM; in experiment [1] it was 0.7 µM.

With `CC(C)(c1ccc(Br)cc1)c1csc(NC(=O)NCc2ccc(N3CCNCC3)cc2Cl)n1` [Example A048, 1-(4-(2-(4-bromophenyl)propan-2-yl)thiazol-2-yl)-3-(2-chloro-4-(piperazin-1-yl)benzyl)urea], the concentration for half-maximal inhibition (IC50) was found to be 0.138 µM on ALPK1 and 1.53 µM in experiment [1].

`COc1ccc(C(C)(C)c2csc(NC(=O)NCc3cnc(N4CCNCC4)c(F)c3)n2)cc1` [Example A036, 1-((5-fluoro-6-(piperazin-1-yl)pyridin-3-yl)methyl)-3-(4-(2-(4-methoxyphenyl)propan-2-yl)thiazol-2-yl)urea]: the IC50 at ALPK1 amounted to 0.024 µM; in experiment [1], 0.62 µM.

On to `CC1CN(c2ccc(CNC(=O)Nc3nc(C(C)(C)c4ccc(Br)cc4)cs3)cc2)CC(C)N1` (stereo not drawn) [Example A213, 1-(4-(2-(4-bromophenyl)propan-2-yl)thiazol-2-yl)-3-(4-(3,5-dimethylpiperazin-1-yl)benzyl)urea], for which the half-inhibitory concentration (IC50) on ALPK1 was determined as 0.009 µM; in experiment [1] it was 6.38 µM.
